Measurements reported in patent US12404239B2, “Modulators of BCL6 as ligand directed degraders” (Celgene Corporation, priority 2022, dated 2025).

biological target: T1, BCL6 (Homo sapiens, UniProt P41182); test: BCL6_HiBiT degradation assay (2 h); format: cell-based; settings: DHL-4_BCL6_HiBiT cells, read-out: YCon (% remaining maximal effect)
T1 construct: HiBiT-tag knocked into endogenous BCL6 locus using CRISPR; endogenous in cells; host or cells: DHL-4_BCL6_HiBiT cells (CRISPR knock-in)
In short: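 DHL-4 cells carrying CRISPR HiBiT knock-in at endogenous BCL6, treated 2 h at 37 °C with 10-point 3-fold dilutions from 1-10 μM. BCL6 level read by Nano-Glo HiBiT lytic luminescence normalized to DMSO; four-parameter fit gives degradation EC50 and Yconstant (% remaining at maximal effect).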

Row | SMILES | Percent BCL6 remaining at maximal degradation (Ycon)
1 | CO[C@@H]1CN(c2ncc(C#N)c(Nc3ccc4c(c3)CC(=O)N4C)n2)CC[C@H]1Nc1ccc2c(C3(C)CCC(=O)NC3=O)nn(C)c2c1 (stereo partly drawn) [Example 155, 2-((3R,4R)-3-methoxy-4-((1-methyl-3-(3-methyl-2,6-dioxopiperidin-3-yl)-1H-indazol-6-yl)amino)piperidin-1-yl)-4-((1-methyl-2-oxoindolin-5-yl)amino) pyrimidine-5-carbonitrile] | 20 to 60%
2 | CN1C(=O)Cc2cc(Nc3nc(N4CCC(Nc5ccc6c(N7CCC(=O)NC7=O)nn(C)c6c5)CC4)ncc3C#N)ccc21 [Example 138, 2-(4-((3-(2,4-dioxotetrahydropyrimidin-1(2H)-yl)-1-methyl-1H-indazol-6-yl)amino)piperidin-1-yl)-4-((1-methyl-2-oxoindolin-5-yl)amino)pyrimidine-5-carbonitrile] | > 60%
3 | CO[C@@H]1CN(c2ncc(C#N)c(Nc3ccc4c(c3)CC(=O)N4C)n2)CC[C@H]1Nc1ccc2c(N3CCC(=O)NC3=O)nn(C)c2c1 [Example 157, 2-((3R,4R)-4-((3-(2,4-dioxotetrahydropyrimidin-1(2H)-yl)-1-methyl-1H-indazol-6-yl)amino)-3-methoxypiperidin-1-yl)-4-((1-methyl-2-oxoindolin-5-yl)amino) pyrimidine-5-carbonitrile] | 20 to 60%
4 | C[C@@H]1CN(c2ncc(Cl)c(Nc3ccc4c(c3)CC(=O)N4CCN3CCOCC3)n2)CC[C@H]1Nc1ccc2c(C3CCC(=O)NC3=O)nn(C)c2c1 (stereo partly drawn) [Example 101, 3-(6-(((3R,4R)-1-(5-chloro-4-((1-(2-morpholinoethyl)-2-oxoindolin-5-yl)amino)pyrimidin-2-yl)-3-methylpiperidin-4-yl)amino)-1-methyl-1H-indazol-3-yl)piperidine-2,6-dione] | < 20%
5 | CN1C(=O)Cc2cc(Nc3nc(N4CCCC(Nc5ccc6c(C7CCC(=O)NC7=O)nn(C)c6c5)CC4)ncc3Cl)ccc21 (stereo not drawn) [Example 31, 3-(6-((1-(5-chloro-4-((1-methyl-2-oxoindolin-5-yl)amino)pyrimidin-2-yl)azepan-4-yl)amino)-1-methyl-1H-indazol-3-yl)piperidine-2,6-dione] | > 60%
6 | CN1C(=O)Cc2cc(Nc3nc(N(C)[C@H]4C[C@H]5CC[C@@H](C4)N5c4ccc5c(C6CCC(=O)NC6=O)nn(C)c5c4)ncc3Cl)ccc21 (stereo partly drawn) [Example 16, 3-(6-((1R,3r,5S)-3-((5-chloro-4-((1-methyl-2-oxoindolin-yl)amino)pyrimidin-2-yl)(methyl)amino)-8-azabicyclo[3.2.1]octan-8-yl)-1-methyl-1H-indazol-3-yl)piperidine-2,6-dione] | 20 to 60%
7 | CO[C@@H]1CN(c2ncc(Cl)c(Nc3ccc4c(c3)CC(=O)N4C)n2)CC[C@H]1Nc1ccc2c(C3(C)CCC(=O)NC3=O)nn(C)c2c1 (stereo partly drawn) [Example 154, 3-(6-(((3R,4R)-1-(5-chloro-4-((1-methyl-2-oxoindolin-5-yl)amino)pyrimidin-2-yl)-3-methoxypiperidin-4-yl)amino)-1-methyl-1H-indazol-3-yl)-3-methylpiperidine-2,6-dione] | 20 to 60%
8 | C[C@@H]1CN(c2ncc(Cl)c(Nc3ccc4c(c3)N(CCC(C)(C)O)C(=O)C4)n2)CC[C@H]1Nc1ccc2c(C3CCC(=O)NC3=O)nn(C)c2c1 (stereo partly drawn) [Example 120, 3-(6-(((3R,4R)-1-(5-chloro-4-((1-(3-hydroxy-3-methylbutyl)-2-oxoindolin-6-yl)amino)pyrimidin-2-yl)-3-methylpiperidin-4-yl)amino)-1-methyl-1H-indazol-3-yl)piperidine-2,6-dione] | < 20%
9 | Cn1nc(C2CCC(=O)NC2=O)c2ccc(N3CCN(c4ncc(Cl)c(Nc5ccc6c(c5)CC(=O)N6)n4)CC3)cc21 (stereo not drawn) [Example 34, 3-(6-(4-(5-chloro-4-((2-oxoindolin-5-yl)amino)pyrimidin-2-yl)piperazin-1-yl)-1-methyl-1H-indazol-3-yl)piperidine-2,6-dione] | > 60%
10 | C[C@@H]1CN(c2ncc(Cl)c(Nc3cc(F)c4c(c3)CC(=O)N4C)n2)CC[C@H]1Nc1ccc2c(C3CCC(=O)NC3=O)nn(C)c2c1 (stereo partly drawn) [Example 95, 3-(6-(((3R,4R)-1-(5-chloro-4-((7-fluoro-1-methyl-2-oxoindolin-5-yl)amino)pyrimidin-2-yl)-3-methylpiperidin-4-yl)amino)-1-methyl-1H-indazol-3-yl)piperidine-2,6-dione] | < 20%
11 | CC(C)N1C(=O)Cc2cc(Nc3nc(N4CC[C@@H](Nc5ccc6c(C7CCC(=O)NC7=O)nn(C)c6c5)[C@H](C)C4)ncc3Cl)ccc21 (stereo partly drawn) [Example 115, 3-(6-(((3R,4R)-1-(5-chloro-4-((1-isopropyl-2-oxoindolin-5-yl)amino)pyrimidin-2-yl)-3-methylpiperidin-4-yl)amino)-1-methyl-1H-indazol-3-yl)piperidine-2,6-dione] | < 20%
12 | C[C@@H]1CN(c2ncc(C#N)c(Nc3cc4c(cc3F)N(C)C(=O)C4)n2)CC[C@H]1Nc1ccc2c(C3CCC(=O)NC3=O)nn(C)c2c1 (stereo partly drawn) [Example 117, 2-((3R,4R)-4-((3-(2,6-dioxopiperidin-3-yl)-1-methyl-1H-indazol-6-yl)amino)-3-methylpiperidin-1-yl)-4-((6-fluoro-1-methyl-2-oxoindolin-5-yl)amino)pyrimidine-5-carbonitrile] | < 20%
13 | CN1C(=O)Cc2cc(Nc3nc(N4CCC(Nc5ccc6c(C7CCC(=O)NC7=O)nn(C)c6c5)CC4)ncc3Cl)ccc21 (stereo not drawn) [Example 52, 3-(6-((1-(5-chloro-4-((1-methyl-2-oxoindolin-5-yl)amino)pyrimidin-2-yl)piperidin-4-yl)amino)-1-methyl-1H-indazol-3-yl)piperidine-2,6-dione] | 20 to 60%
14 | C[C@@H]1CN(c2nc(F)c(Cl)c(Nc3ccc4c(c3)CC(=O)N4C)n2)CC[C@H]1Nc1ccc2c(C3CCC(=O)NC3=O)nn(C)c2c1 (stereo partly drawn) [Example 123, 3-(6-(((3R,4R)-1-(5-chloro-4-fluoro-6-((1-methyl-2-oxoindolin-5-yl)amino)pyrimidin-2-yl)-3-methylpiperidin-4-yl)amino)-1-methyl-1H-indazol-3-yl)piperidine-2,6-dione] | < 20%

Second part, the compound after the results:

Row | Percent BCL6 remaining at maximal degradation (Ycon) | SMILES
15 | > 60% | CN1C(=O)Cc2cc(Nc3nc(N(C)C4CCN(c5ccc6c(C7CCC(=O)NC7=O)nn(C)c6c5)CC4)ncc3Cl)ccc21 (stereo not drawn) [Example 6, 3-(6-(4-((5-Chloro-4-((1-methyl-2-oxoindolin-5-yl)amino)pyrimidin-2-yl)(methyl)amino)piperidin-1-yl)-1-methyl-1H-indazol-3-yl)piperidine-2,6-dione]
16 | < 20% | C[C@@H]1C(=O)N(c2ccc3c(C4CCC(=O)NC4=O)nn(C)c3c2)CC[C@H]1N(C)c1ncc(Cl)c(Nc2ccc3c(c2)CC(=O)N3C)n1 (single isomer, unassigned) [Example 131]
17 | > 60% | CN1C(=O)Cc2cc(Nc3nc(N4CCC(c5ccc6c(C7CCC(=O)NC7=O)nn(C)c6c5)CC4)ncc3Cl)ccc21 (stereo not drawn) [Example 125, 3-(6-(1-(5-Chloro-4-((1-methyl-2-oxoindolin-5-yl)amino)pyrimidin-2-yl)piperidin-4-yl)-1-methyl-1H-indazol-3-yl)piperidine-2,6-dione]
18 | > 60% | C[C@@H]1C[C@@H](N(C)c2ccc3c(C4CCC(=O)NC4=O)nn(C)c3c2)CCN1c1ncc(Cl)c(Nc2ccc3c(c2)CC(=O)N3C)n1 (stereo partly drawn) [Example 25, 3-(6-(((2R,4S)-1-(5-chloro-4-((1-methyl-2-oxoindolin-5-yl)amino)pyrimidin-2-yl)-2-methylpiperidin-4-yl)(methyl)amino)-1-methyl-1H-indazol-3-yl)piperidine-2,6-dione]
19 | < 20% | C[C@@H]1CN(c2ncc(Cl)c(Nc3ccc4c(c3)CC(=O)N4C)n2)CC[C@H]1Nc1ccc2c([C@H]3CCC(=O)NC3=O)nn(C)c2c1 (single isomer, unassigned) [Example 71]
20 | < 20% | C[C@@H]1CN(c2ncc(Cl)c(Nc3ccc4c(c3)CC(=O)N4C)n2)CC[C@H]1Nc1ccc2c([C@@H]3CCC(=O)NC3=O)nn(C)c2c1 (single isomer, unassigned) [Example 72]
21 | 20 to 60% | CN1C(=O)Cc2cc(Nc3nc(N4CC[C@@H](Nc5ccc6c(C7CCC(=O)NC7=O)nn(C)c6c5)[C@H](F)C4)ncc3Cl)ccc21 (stereo partly drawn) [Example 45, 3-(6-(((3R,4R)-1-(5-chloro-4-((1-methyl-2-oxoindolin-5-yl)amino)pyrimidin-2-yl)-3-fluoropiperidin-4-yl)amino)-1-methyl-1H-indazol-3-yl)piperidine-2,6-dione]
22 | > 60% | CN1C(=O)Cc2cc(Nc3nc(N4CC[C@@H](Nc5ccc6c(C7CCC(=O)NC7=O)nn(C)c6c5)[C@@H](F)C4)ncc3Cl)ccc21 (stereo partly drawn) [Example 44, 3-(6-(((3S,4R)-1-(5-chloro-4-((1-methyl-2-oxoindolin-5-yl)amino)pyrimidin-2-yl)-3-fluoropiperidin-4-yl)amino)-1-methyl-1H-indazol-3-yl)piperidine-2,6-dione]
23 | > 60% | C[C@@H]1CN(c2ccc3c(C4CCC(=O)NC4=O)nn(C)c3c2)C[C@@H](C)N1c1ncc(Cl)c(Nc2ccc3c(c2)CC(=O)N3C)n1 (stereo partly drawn) [Example 28, 3-(6-((3R,5R)-4-(5-chloro-4-((1-methyl-2-oxoindolin-5-yl)amino)pyrimidin-2-yl)-3,5-dimethylpiperazin-1-yl)-1-methyl-1H-indazol-3-yl)piperidine-2,6-dione]
24 | < 20% | CN1C(=O)Cc2cc(Nc3nc(N(C)C4CCN(c5ccc6c(C7CCC(=O)NC7=O)nn(C)c6c5)C(=O)C4)ncc3Cl)ccc21 (stereo not drawn) [Example 127, 3-(6-(4-((5-chloro-4-((1-methyl-2-oxoindolin-5-yl)amino)pyrimidin-2-yl)(methyl)amino)-2-oxopiperidin-1-yl)-1-methyl-1H-indazol-3-yl)piperidine-2,6-dione]
